# Test results taken from patent US20240382471A1, “GLUCAGON-LIKE PEPTIDE-1 RECEPTOR MODULATORS AND USES THEREOF” (HEPAGENE THERAPEUTICS (HK) LIMITED, priority 2021, published 2024).
# Molecular target: GLP1R (Homo sapiens, UniProt P43220)
# Test: GLP1R/CRE-Luc luciferase reporter gene assay (agonist activity)
# Format: cell-based
# Set-up: host or cells: HKE293 (so in the source)
# Details: HKE293-Human GLP1R/CRE-luc cells, 5 h at 37° C., read-out: EC50 (nM) Assay 2
# Experimental: GLP1R-mediated agonist activity was determined with a cell-based functional assay utilizing a britelite plus luciferase reporter gene assay system. The stable cell line overexpress GLP1R and target response element. The stimulation with GLP1R agonist results in the upregulation of intracellular cAMP, which regulate the activities of cAMP-response element binding protein (CREB) and CREB-Luc. Reagents and equipment used in the assay are listed below, followed by the protocol.
# • 1) Cell Line: HKE293-Human GLP1R/CRE-luc • 2) Complete Medium: DMEM+10% FBS+1×Penicillin-Streptomycin+400 μg/mL G418
# • a) Seed HKE293-Human GLP1R/CRE-luc cells at 20,000 cells/well into 384 well assay plate (6007680-50, PE) using complete medium and incubate overnight. • b) Prepare 6×compound working solution with Medium. • c) Add 5 μL 6×compound working solution into cell plate, incubate 5 h at 37° C. • d) Add 20 μl britelite plus Luciferase Assay Reagent into each well of 384-well assay plate. • e) Record the luminescence value on Envision plate reader.
# • 3.1% Activity is calculated as follow:
# % Activity=(Signalcmpd−SignalAve_VC)/(SignalAve_PC−SignalAve_VC)×100. • 3.2 Calculate EC50 and Plot effect-dose curve of cmpds:
# Y=Bottom+(Top−Bottom)/(1+10^((Log EC50−X)*HillSlope)) • X: log of agonist concentration; Y: % Activity.
# GLP1R, sequence (P43220 24-463): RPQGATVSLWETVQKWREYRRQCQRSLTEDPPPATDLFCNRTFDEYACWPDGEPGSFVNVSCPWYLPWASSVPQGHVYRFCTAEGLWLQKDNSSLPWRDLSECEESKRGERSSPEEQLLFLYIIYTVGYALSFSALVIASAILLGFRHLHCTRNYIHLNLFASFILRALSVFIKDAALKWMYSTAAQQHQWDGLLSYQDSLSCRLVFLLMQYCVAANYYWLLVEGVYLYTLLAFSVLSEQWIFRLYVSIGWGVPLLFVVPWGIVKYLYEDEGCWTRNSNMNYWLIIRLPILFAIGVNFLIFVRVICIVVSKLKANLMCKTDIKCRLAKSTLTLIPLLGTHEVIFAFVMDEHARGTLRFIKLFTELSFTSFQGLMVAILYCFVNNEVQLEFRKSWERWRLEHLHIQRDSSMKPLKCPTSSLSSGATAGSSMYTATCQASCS
row,EC50 [nM],SMILES
1,132,"COc1cc(C#N)ccc1COc1nc(C23CCN(Cc4nc5ccc(C(=O)O)cc5n4C[C@@H]4CCO4)CC2C3)ncc1F (stereo partly drawn) [Compound 1-31, 2-((6-(4-((4-cyano-2-methoxybenzyl)oxy)-5-fluoropyrimidin-2-yl)-3-azabicyclo[4.1.0]heptan-3-yl)methyl)-1-(((S)-oxetan-2-yl)methyl)-1H-benzo[d]imidazole-6-carboxylic acid]"
2,0.49,"[2H]C([2H])([2H])Oc1cc(C(=O)O)cc2c1nc(CN1CCC3(c4cccc(OCc5ccc(C#N)cc5OC)n4)CC3C1)n2C[C@@H]1CCO1 (stereo partly drawn) [Compound 1-32, 2-((6-(6-((4-cyano-2-methoxybenzyl)oxy)pyridin-2-yl)-3-azabicyclo[4.1.0]heptan-3-yl)methyl)-4-(methoxy-d3)-1-(((S)-oxetan-2-yl)methyl)-1H-benzo[d]imidazole-6-carboxylic acid]"
3,105,"COc1cc(C#N)ccc1COc1nc(C23CCN(Cc4nc5c(OC)cc(C(=O)O)cc5n4C[C@@H]4CCO4)CC2C3)ncc1C (stereo partly drawn) [Compound 1-33, 2-((6-(4-((4-cyano-2-methoxybenzyl)oxy)-5-methylpyrimidin-2-yl)-3-azabicyclo[4.1.0]heptan-3-yl)methyl)-4-methoxy-1-(((S)-oxetan-2-yl)methyl)-1H-benzo[d]imidazole-6-carboxylic acid]"
4,1.06,"COc1cc(C(F)(F)F)ccc1COc1ccnc(C23CCN(Cc4nc5c(OC)cc(C(=O)O)cc5n4C[C@@H]4CCO4)CC2C3)n1 (stereo partly drawn) [Compound 1-34, 4-methoxy-2-((6-(4-((2-methoxy-4-(trifluoromethyl)benzyl)oxy)pyrimidin-2-yl)-3-azabicyclo[4.1.0]heptan-3-yl)methyl)-1-(((S)-oxetan-2-yl)methyl)-1H-benzo[d]imidazole-6-carboxylic acid]"
5,2.68,"COc1nc(C#N)ccc1COc1ccnc(C23CCN(Cc4nc5c(OC)cc(C(=O)O)cc5n4C[C@@H]4CCO4)CC2C3)n1 (stereo partly drawn) [Compound 1-35, 2-((6-(4-((6-cyano-2-methoxypyridin-3-yl)methoxy)pyrimidin-2-yl)-3-azabicyclo[4.1.0]heptan-3-yl)methyl)-4-methoxy-1-(((S)-oxetan-2-yl)methyl)-1H-benzo[d]imidazole-6-carboxylic acid]"
6,9.38,"COc1c(COc2cccc(C34CCN(Cc5nc6c(OC)cc(C(=O)O)cc6n5C[C@@H]5CCO5)CC3C4)n2)ccc(C#N)c1F (stereo partly drawn) [Compound 1-36, 2-((6-(6-((4-cyano-3-fluoro-2-methoxybenzyl)oxy)pyridin-2-yl)-3-azabicyclo[4.1.0]heptan-3-yl)methyl)-4-methoxy-1-(((S)-oxetan-2-yl)methyl)-1H-benzo[d]imidazole-6-carboxylic acid]"
7,497,"COc1ccc(COc2cccc(C34CCN(Cc5nc6ccc(C(=O)O)cc6n5C[C@@H]5CCO5)CC3C4)n2)c(F)c1 (stereo partly drawn) [Compound 1-37, 2-((6-(6-((2-fluoro-4-methoxybenzyl)oxy)pyridin-2-yl)-3-azabicyclo[4.1.0]heptan-3-yl)methyl)-1-(((S)-oxetan-2-yl)methyl)-1H-benzo[d]imidazole-6-carboxylic acid]"
8,0.79,"COc1cc(C#N)ccc1COc1ccnc(C23CCN(Cc4nc5c(OC)cc(C(=O)O)cc5n4C[C@@H]4CCO4)CC2C3)n1 (stereo partly drawn) [Compound 1-38, 2-((6-(4-((4-cyano-2-methoxybenzyl)oxy)pyrimidin-2-yl)-3-azabicyclo[4.1.0]heptan-3-yl)methyl)-4-methoxy-1-(((S)-oxetan-2-yl)methyl)-1H-benzo[d]imidazole-6-carboxylic acid]"
9,29,"CCOc1cc(C#N)ccc1COc1ccnc(C23CCN(Cc4nc5c(OC)cc(C(=O)O)cc5n4C[C@@H]4CCO4)CC2C3)n1 (stereo partly drawn) [Compound 1-39, 2-((6-(4-((4-cyano-2-ethoxybenzyl)oxy)pyrimidin-2-yl)-3-azabicyclo[4.1.0]heptan-3-yl)methyl)-4-methoxy-1-(((S)-oxetan-2-yl)methyl)-1H-benzo[d]imidazole-6-carboxylic acid]"
10,22.1,"COc1cc(C(=O)O)cc2c1nc(CN1CCC3(c4nccc(OCc5ccc(C#N)cc5OC(C)C)n4)CC3C1)n2C[C@@H]1CCO1 (stereo partly drawn) [Compound 1-40, 2-((6-(4-((4-cyano-2-isopropoxybenzyl)oxy)pyrimidin-2-yl)-3-azabicyclo[4.1.0]heptan-3-yl)methyl)-4-methoxy-1-(((S)-oxetan-2-yl)methyl)-1H-benzo[d]imidazole-6-carboxylic acid]"
11,0.34,"CCOc1cc(C(=O)O)cc2c1nc(CN1CCC3(c4nccc(OCc5ccc(C#N)cc5OC)n4)CC3C1)n2C[C@@H]1CCO1 (stereo partly drawn) [Compound 1-41, 2-((6-(4-((4-cyano-2-methoxybenzyl)oxy)pyrimidin-2-yl)-3-azabicyclo[4.1.0]heptan-3-yl)methyl)-4-ethoxy-1-(((S)-oxetan-2-yl)methyl)-1H-benzo[d]imidazole-6-carboxylic acid]"
12,6.5,"COc1cc(C#N)ccc1COc1ccnc(C23CCN(Cc4nc5c(OC(C)C)cc(C(=O)O)cc5n4C[C@@H]4CCO4)CC2C3)n1 (stereo partly drawn) [Compound 1-42, 2-((6-(4-((4-cyano-2-methoxybenzyl)oxy)pyrimidin-2-yl)-3-azabicyclo[4.1.0]heptan-3-yl)methyl)-4-isopropoxy-1-(((S)-oxetan-2-yl)methyl)-1H-benzo[d]imidazole-6-carboxylic acid]"
13,0.49,"COc1cc(C#N)ccc1COc1nc(C23CCN(Cc4nc5c(OC)cc(C(=O)O)cc5n4C[C@@H]4CCO4)CC2C3)ncc1F (stereo partly drawn) [Compound 1-43, 2-((6-(4-((4-cyano-2-methoxybenzyl)oxy)-5-fluoropyrimidin-2-yl)-3-azabicyclo[4.1.0]heptan-3-yl)methyl)-4-methoxy-1-(((S)-oxetan-2-yl)methyl)-1H-benzo[d]imidazole-6-carboxylic acid]"
14,0.3,"CCn1cncc1Cn1c(CN2CCC3(c4cccc(OCc5ccc(C#N)cc5OC)n4)CC3C2)nc2ccc(C(=O)O)cc21 (centres unmarked) [Compound 1-44, 2-((6-(6-((4-cyano-2-methoxybenzyl)oxy)pyridin-2-yl)-3-azabicyclo[4.1.0]heptan-3-yl)methyl)-1-((1-ethyl-1H-imidazol-5-yl)methyl)-1H-benzo[d]imidazole-6-carboxylic acid]"
15,0.16,"CCn1cncc1Cn1c(CN2CCC3(c4nccc(OCc5ccc(C#N)cc5OC)n4)CC3C2)nc2c(OC)cc(C(=O)O)cc21 (centres unmarked) [Compound 1-45, 2-((6-(4-((4-cyano-2-methoxybenzyl)oxy)pyrimidin-2-yl)-3-azabicyclo[4.1.0]heptan-3-yl)methyl)-1-((1-ethyl-1H-imidazol-5-yl)methyl)-4-methoxy-1H-benzo[d]imidazole-6-carboxylic acid]"
16,2.6,"COc1cc(C#N)ccc1COc1ccnc(C23CCN(Cc4nc5c(Cl)cc(C(=O)O)cc5n4C[C@@H]4CCO4)CC2C3)n1 (stereo partly drawn) [Compound 1-46, 4-chloro-2-((6-(4-((4-cyano-2-methoxybenzyl)oxy)pyrimidin-2-yl)-3-azabicyclo[4.1.0]heptan-3-yl)methyl)-1-(((S)-oxetan-2-yl)methyl)-1H-benzo[d]imidazole-6-carboxylic acid]"
17,3.85,"COc1cc(Cl)ccc1COc1ccnc(C23CCN(Cc4nc5c(OC)cc(C(=O)O)cc5n4C[C@@H]4CCO4)CC2C3)n1 (stereo partly drawn) [Compound 1-47, 2-((6-(4-((4-chloro-2-methoxybenzyl)oxy)pyrimidin-2-yl)-3-azabicyclo[4.1.0]heptan-3-yl)methyl)-4-methoxy-1-(((S)-oxetan-2-yl)methyl)-1H-benzo[d]imidazole-6-carboxylic acid]"
18,0.33,"CCn1cncc1Cn1c(CN2CCC3(c4nccc(OCc5ccc(C(F)(F)F)cc5OC)n4)CC3C2)nc2c(OC)cc(C(=O)O)cc21 (centres unmarked) [Compound 1-48, 1-((1-ethyl-1H-imidazol-5-yl)methyl)-4-methoxy-2-((6-(4-((2-methoxy-4-(trifluoromethyl)benzyl)oxy)pyrimidin-2-yl)-3-azabicyclo[4.1.0]heptan-3-yl)methyl)-1H-benzo[d]imidazole-6-carboxylic acid]"
19,10.2,"C#Cc1ccc(COc2ccnc(C34CCN(Cc5nc6c(OC)cc(C(=O)O)cc6n5C[C@@H]5CCO5)CC3C4)n2)c(OC)c1 (stereo partly drawn) [Compound 1-49, 2-((6-(4-((4-ethynyl-2-methoxybenzyl)oxy)pyrimidin-2-yl)-3-azabicyclo[4.1.0]heptan-3-yl)methyl)-4-methoxy-1-(((S)-oxetan-2-yl)methyl)-1H-benzo[d]imidazole-6-carboxylic acid]"
20,266,"COc1cc(C#N)ccc1COc1cccc(C23CCN(Cc4nc5c(F)cc(C(=O)NS(C)(=O)=O)cc5n4C[C@@H]4CCO4)CC2C3)n1 (stereo partly drawn) [Compound 7-1, 2-((6-(6-((4-cyano-2-methoxybenzyl)oxy)pyridin-2-yl)-3-azabicyclo[4.1.0]heptan-3-yl)methyl)-4-fluoro-N-(methylsulfonyl)-1-(((S)-oxetan-2-yl)methyl)-1H-benzo[d]imidazole-6-carboxamide]"
